Assay: Solubility of the starting material in the solvent
Type: physicochemical
Conditions: 20° C., until clear solution
Description: Solubility of the Starting Material in the Solvent
To 1 g of HAP is added 5 ml of solvent. The mixture is stirred in a water bath at 20° C. The solvent is further slowly added under stirring until a clear solution appears.
The amount of used solvent is noted.

CC(=O)c1cccc(O)c1 [HAP, 3-hydroxy-acetophenon]
Solvent in ml per g HAP (solvent Acetone): 46 ml per g HAP
Solvent in ml per g HAP (solvent Acetonitrile): 6 ml per g HAP
Solvent in ml per g HAP (solvent Cyclohexane): >200 ml per g HAP
Solvent in ml per g HAP (solvent DCM): 22 ml per g HAP
Solvent in ml per g HAP (solvent Ethanol): 20 ml per g HAP
Solvent in ml per g HAP (solvent Ether): 8 ml per g HAP
Solvent in ml per g HAP (solvent Methanol): 10 ml per g HAP
Solvent in ml per g HAP (solvent Tetraglyme): 9 ml per g HAP
Solvent in ml per g HAP (solvent Toluene): 156 ml per g HAP
Solvent in ml per g HAP (solvent n-Heptane): 20 ml per g HAP
Solvent in ml per g HAP (solvent n-Hexane): 23 ml per g HAP

Reference: patent US11104630B2, “Synthesis of mono-chlorinated acetophenone” (SIEGFRIED AG, priority 2017, dated 2021)
